Measurements published in the NIST ThermoML archive (doi:10.1016/j.jct.2016.09.027).

Test: mn = molality of the nth substance listed, in mol/kg
Settings: 100 kPa, Liquid; for speed of sound: Frequency=3 MHz, Sing-around technique in a fixed-path interferometer; for mass density: Vibrating tube method

C[C@H]1COc2c(N3CCN(C)CC3)c(F)cc3c(=O)c(C(=O)O)cn1c23 [levofloxacin] + O
Settings | mass density, 288.15 K [kg/m3] | mass density, 293.15 K [kg/m3] | mass density, 298.15 K [kg/m3] | mass density, 303.15 K [kg/m3] | mass density, 308.15 K [kg/m3] | speed of sound, 288.15 K [m/s] | speed of sound, 293.15 K [m/s] | speed of sound, 298.15 K [m/s] | speed of sound, 303.15 K [m/s] | speed of sound, 308.15 K [m/s]
m1 = 0.005 | 1001.5 | 1000.61 | 999.444 | 998.037 | 996.415 | 1467.4 | 1483.2 | 1497.3 | 1509.7 | 1520.3
m1 = 0.01 | 1002.04 | 1001.14 | 999.956 | 998.556 | 996.926 | 1468.3 | 1484 | 1498.1 | 1510.4 | 1521
m1 = 0.03 | 1004.52 | 1003.59 | 1002.39 | 1000.96 | 999.305 | 1471.4 | 1487.2 | 1500.9 | 1513 | 1523.4
